Here are results for 2 compounds from publication PMC11742122, “Therapeutic Potential of Crocin and Nobiletin in a Mouse Model of Dry Eye Disease: Modulation of the Inflammatory Response and Protection of the Ocular Surface” (Iranian Journal of Pharmaceutical Research : IJPR, 2024).

SMILES strings stand for the structures. Marks after values point to notes of the source that are not given here.

The subject of series [1] is rabbit eye. As to the kind of experiment: Eye irritation test (Draize test) in rabbits' eyes. The protocol: To assess the ocular toxicity of the two compounds, crocin and nobiletin, an in vivo eye irritation test was conducted. The concentrations evaluated were strategically chosen based on the respective IC50 of each compound. Specifically, the concentrations tested included the IC50 value itself, as well as concentrations at one-half and one-quarter of the IC50 value. This approach allowed for a comprehensive evaluation of the potential eye irritation caused by varying levels of exposure to these compounds. The experimental protocol involved the preparation of stock solutions for crocin and nobiletin using DMSO as the solvent at high concentrations. These stock solutions were then diluted with an artificial tear solution to obtain the desired treatment doses for instillation into the eye conjunctiva of the test subjects. Subsequently, the team meticulously observed and recorded any occurrences of eye symptoms, focusing on the iris, cornea, and conjunctiva over periods of 1, 24, 48, and 72 hours ([18]).

In series [2] the test system is TNF-α. Put plainly: TNF-α concentration in LPS-stimulated HEK-293 cell line. It counts as cell-based. The conditions noted are these: HEK-293 cells, LPS 1 μg/mL, 48 hours; for TNF-α concentration, higher dose versus lower dose: crocin 68 μM, nobiletin 65.5 μM; for TNF-α concentration (anti-inflammatory effect): crocin 34 and 68 μM, nobiletin 32.75 and 65.5 μM, vs LPS group. On the procedure:
Figure 3. Tumor necrosis factor-alpha (TNF-α) concentration in HEK-293 cells treated with LPS (1 μg/mL) for 48 hours.

In series [3] the test system is HEK-293 cells. As to the kind of experiment: MTT cell viability assay. Type of series: cell-based. The conditions noted are these: Homo sapiens, HEK293, 48-hour treatment. The protocol:
The HEK-293 cell line was acquired from the National Cell Bank of Iran, situated at the Pasteur Institute in Tehran. These cells were propagated in Roswell Park Memorial Institute (RPMI) medium, supplemented with 10% fetal bovine serum (FBS), 100 units/mL penicillin, and 100 μg/mL streptomycin. The culture conditions maintained were a humidified incubator set at 37°C, with 5% CO2 and 95% humid air. The culture medium was replenished twice per week until the cells reached 80 - 90% confluency. Subsequently, the cells were dissociated using trypsin and subcultured for passaging and cryopreservation. All experiments were conducted using cells within the passage number range of 3 - 6. Cells were routinely tested for mycoplasma contamination using Hoechst staining. Briefly, cells were fixed and stained with Hoechst 33258 dye, which binds to DNA. Samples were then examined under a fluorescence microscope for the presence of extranuclear DNA, indicative of mycoplasma infection. All cell cultures used in this study were confirmed to be mycoplasma-negative. […] In this study, (1 × 10^4) Hek-293 cells were seeded per well in 96-well plates. […] The measurement of absorbance was performed at an optical density (OD) of 570 nm. Cell viability was assessed by comparing the absorbance values of the drug-treated cells to those of untreated control cells. […]
On the technique in general: Formazan colour is commonly taken as a measure of viable cells.

As a reminder, the IC50 is the midpoint of a concentration-inhibition curve. A high value points to weaker potency in that assay. On to `CC(/C=C/C=C(\C)C(=O)O[C@@H]1O[C@H](CO[C@@H]2O[C@H](CO)[C@@H](O)[C@H](O)[C@H]2O)[C@@H](O)[C@H](O)[C@H]1O)=C\C=C\C=C(C)\C=C\C=C(/C)C(=O)O[C@@H]1O[C@H](CO[C@@H]2O[C@H](CO)[C@@H](O)[C@H](O)[C@H]2O)[C@@H](O)[C@H](O)[C@H]1O` [Crocin], for which the highest safe concentration in series [1] (rabbit eye irritation test) was 34 ^a µM. In series [1] (rabbit, in vivo), the ocular observations result is on record as “ocular turbidity was observed, along with mild conjunctival hyperemia”. Moreover, in series [2], the “TNF-α concentration, higher dose versus lower dose” value was “superior anti-inflammatory efficacy compared to their lower-dose counterparts” and the “TNF-α concentration (anti-inflammatory effect)” value is “exhibited anti-inflammatory properties at all tested concentrations”. The compound also returned a 50% inhibitory concentration (IC50) in series [3] of 136 µM.
With `COc1ccc(-c2cc(=O)c3c(OC)c(OC)c(OC)c(OC)c3o2)cc1OC` [Nobiletin], in series [1] (rabbit, in vivo), the ocular observations entry is on record as “ocular turbidity was observed, along with mild conjunctival hyperemia”. Further, in series [1] (rabbit, in vivo, 72 h), the highest safe concentration was 32.75 ^a µM. In series [2], the “TNF-α concentration, higher dose versus lower dose” value is given as “superior anti-inflammatory efficacy compared to their lower-dose counterparts” and the “TNF-α concentration (anti-inflammatory effect)” value is listed as “exhibited anti-inflammatory properties at all tested concentrations”. In addition, half-maximal inhibition in series [3] (IC50) required 131 µM.
